These results are taken from US11279683B2, “Thiophene derivatives as antiviral agents” (ENYO PHARMA, priority 2016, dated 2022).

Like-named read-outs stand apart in the source and are kept apart here.

In one assay the test system is p62. The assay can be described thus: p62 expression measurement. The class given is cell-based. The source says:
The autophagy-inducing effect has been assessed by LC3 lipidation assay and by p62 expression measurement.

Assay [1] has as its system H1N1 (influenza A/New Caledonia/20/99). The assay can be described thus: microbe, parasite or virus in culture. The format is cell-based.
[2] abbreviates: Influenza A virus, H1N1, A549, 48 h.

Consider `O=C(Nc1ccc(Cl)cc1)c1c(NC(=O)C2CCCCC2C(=O)O)sc2c1CCC2` (stereo not drawn) [Compound 57, 2-[[3-[(4-Chlorophenyl)carbamoyl]-5,6-dihydro-4H-cyclopenta[b]thiophen-2-yl]carbamoyl]cyclohexane-cis-carboxylic acid], for which the “p62 expression*” value with p62 was “down”. In assay [1], this compound yielded an IC50 of 7.18 µM.
On to `O=C(Nc1ccc(Cl)cc1)c1c(NC(=O)C2CCCCC2C(=O)O)sc2cscc12` (stereo not shown) [Compound 42, 2-[[3-[(4-Chlorophenyl)carbamoyl]thieno[3,4-b]thiophen-2-yl]carbamoyl]cyclohexanecarboxylic acid], for which the “p62 expression*” value with p62 is reported as “down”. Besides, inhibition in assay [1] (setting [2]) was half-maximal at 3.08 µM (IC50).
Consider `O=C(Nc1ccc(Cl)cc1)c1c(NC(=O)C2CCCCC2C(=O)O)sc2ccccc12` (stereo not shown) [Compound 41, 2-[[3-[(4-Chlorophenyl)carbamoyl]benzothiophen-2-yl]carbamoyl]cyclohexane carboxylic acid], for which, in the assay on p62, the “p62 expression*” value is listed as “down”. The half-inhibitory concentration (IC50) in assay [1] (setting [2]) was determined as 3.53 µM.
In assay [1] (setting [2]), `O=C(Nc1cccc(Cl)c1)c1c(NC(=O)C2CCCCC2C(=O)O)sc2c1CCC2` (stereo not shown) [Compound 17, 2-[[3-[(3-Chlorophenyl)carbamoyl]-5,6-dihydro-4H-cyclopenta[b]thiophen-2-yl]carbamoyl]cyclohexanecarboxylic acid] had an IC50 of 4.88 µM.

Usually IC50 stands for the concentration that gives 50% inhibition.
